According to US12077503B2, “Substituted cyclic amides and their use as herbicides” (FMC CORPORATION, priority 2015, dated 2024):

Tests used:
Format in all cases: in vivo
[1] = tested on: ragweed (common ragweed, Ambrosia elatior); assay: Test A preemergence; settings: Ambrosia artemisiifolia, pre-emergence, 240 h, preemergence, read-out: Plant response rating, Ragweed; for pest or weed control at 125 g/ha: 125 g ai/ha, visual rating after approx. 10 d, 0 to 100 scale where 0 is no effect and 100 is complete control; for pest or weed control at 500 g/ha: 500 g ai/ha, 0 to 100 scale, 0 = no effect, 100 = complete control
Procedure, shortened: (§1)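 In a loam soil and sand blend, planted seeds got a preemergence directed soil spray, and young plants at the one- to two-leaf stage, 2–10 cm high, got a postemergence application; ~10 d greenhouse hold; injury rated visually, 0 = none, 100 = complete control.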

[2] = tested on: giant foxtail (Setaria faberii); assay: Test A preemergence; settings: Setaria faberi, pre-emergence, 240 h, preemergence, read-out: Plant response rating, Foxtail, Giant; for pest or weed control at 125 g/ha: 125 g ai/ha, visual rating after approx. 10 d, 0 to 100 scale where 0 is no effect and 100 is complete control; for pest or weed control at 500 g/ha: 500 g ai/ha, 0 to 100 scale, 0 = no effect, 100 = complete control
Procedure, shortened: as §1

[3] = tested on: barnyardgrass (Echinochloa crus-galli); assay: Test A preemergence; settings: Echinochloa crus-galli, pre-emergence, 240 h, preemergence, read-out: Plant response rating, Barnyardgrass; for pest or weed control at 125 g/ha: 125 g ai/ha, visual rating after approx. 10 d, 0 to 100 scale where 0 is no effect and 100 is complete control; for pest or weed control at 500 g/ha: 500 g ai/ha, 0 to 100 scale, 0 = no effect, 100 = complete control
Procedure, shortened: as §1

[4] = tested on: ryegrass, Italian (Italian ryegrass, Lolium multiflorum); assay: Test A preemergence; settings: Lolium multiflorum, pre-emergence, 240 h, preemergence, read-out: Plant response rating, Ryegrass, Italian; for pest or weed control at 125 g/ha: 125 g ai/ha, visual rating after approx. 10 d, 0 to 100 scale where 0 is no effect and 100 is complete control; for pest or weed control at 500 g/ha: 500 g ai/ha, 0 to 100 scale, 0 = no effect, 100 = complete control
Procedure, shortened: as §1

[5] = tested on: pigweed (Amaranthus retroflexus); assay: Test A preemergence; settings: Amaranthus retroflexus, pre-emergence, 240 h, preemergence, read-out: Plant response rating, Pigweed; for pest or weed control at 125 g/ha: 125 g ai/ha, visual rating after approx. 10 d, 0 to 100 scale where 0 is no effect and 100 is complete control; for pest or weed control at 500 g/ha: 500 g ai/ha, 0 to 100 scale, 0 = no effect, 100 = complete control
Kochia (Kochia scoparia) [6] = assay: Test A preemergence; settings: Bassia scoparia, pre-emergence, 240 h, preemergence, read-out: Plant response rating, Kochia; for pest or weed control at 125 g/ha: 125 g ai/ha, visual rating after approx. 10 d, 0 to 100 scale where 0 is no effect and 100 is complete control; for pest or weed control at 500 g/ha: 500 g ai/ha, 0 to 100 scale, 0 = no effect, 100 = complete control
Procedure, shortened: as §1

[7] = tested on: Galium (catchweed bedstraw, Galium aparine); assay: Test A postemergence; settings: Galium, post-emergence, 240 h, 125 g ai/ha, postemergence; visual injury after approximately 10 d; 0 to 100 scale (0 no effect, 100 complete control); read-out: Plant response rating, Galium
Procedure, shortened: as §1

[8] = tested on: blackgrass (Alopecurus myosuroides); assay: Test A postemergence; settings: Alopecurus myosuroides, post-emergence, 240 h, 125 g ai/ha, postemergence; visual injury after approximately 10 d; 0 to 100 scale (0 no effect, 100 complete control); read-out: Plant response rating, Blackgrass
Procedure, shortened: as §1

[9] = tested on: ragweed (common ragweed, Ambrosia elatior); assay: Test A postemergence; settings: Ambrosia artemisiifolia, post-emergence, 240 h, 125 g ai/ha, postemergence; visual injury after approximately 10 d; 0 to 100 scale (0 no effect, 100 complete control); read-out: Plant response rating, Ragweed
Procedure, shortened: as §1

corn (Zea mays) = assay: Test A postemergence; settings: Zea mays, post-emergence, 240 h, 125 g ai/ha, postemergence; visual injury after approximately 10 d; 0 to 100 scale (0 no effect, 100 complete control)
Procedure, shortened: as §1

[10] = tested on: giant foxtail (Setaria faberii); assay: Test A postemergence; settings: Setaria faberi, post-emergence, 240 h, 125 g ai/ha, postemergence; visual injury after approximately 10 d; 0 to 100 scale (0 no effect, 100 complete control); read-out: Plant response rating, Foxtail, Giant
Procedure, shortened: as §1

[11] = tested on: barnyardgrass (Echinochloa crus-galli); assay: Test A postemergence; settings: Echinochloa crus-galli, post-emergence, 240 h, 125 g ai/ha, postemergence; visual injury after approximately 10 d; 0 to 100 scale (0 no effect, 100 complete control); read-out: Plant response rating, Barnyardgrass
Procedure, shortened: as §1

[12] = tested on: ryegrass, Italian (Italian ryegrass, Lolium multiflorum); assay: Test A postemergence; settings: Lolium multiflorum, post-emergence, 240 h, 125 g ai/ha, postemergence; visual injury after approximately 10 d; 0 to 100 scale (0 no effect, 100 complete control); read-out: Plant response rating, Ryegrass, Italian
Procedure, shortened: as §1

[13] = tested on: pigweed (Amaranthus retroflexus); assay: Test A postemergence; settings: Amaranthus retroflexus, post-emergence, 240 h, 125 g ai/ha, postemergence; visual injury after approximately 10 d; 0 to 100 scale (0 no effect, 100 complete control); read-out: Plant response rating, Pigweed
Procedure, shortened: as §1

Kochia (Kochia scoparia) [14] = assay: Test A postemergence; settings: Bassia scoparia, post-emergence, 240 h, 125 g ai/ha, postemergence; visual injury after approximately 10 d; 0 to 100 scale (0 no effect, 100 complete control); read-out: Plant response rating, Kochia
Procedure, shortened: as §1

[15] = tested on: wheat (Triticum aestivum); assay: Test A postemergence; settings: Triticum aestivum, post-emergence, 240 h, 125 g ai/ha, postemergence; visual injury after approximately 10 d; 0 to 100 scale (0 no effect, 100 complete control); read-out: Plant response rating, Wheat
Procedure, shortened: as §1

Compound	pest or weed control at 125 g/ha [1]	pest or weed control at 500 g/ha [1]	pest or weed control at 125 g/ha [2]	pest or weed control at 500 g/ha [2]	pest or weed control at 125 g/ha [3]	pest or weed control at 500 g/ha [3]	pest or weed control at 125 g/ha [4]	pest or weed control at 500 g/ha [4]	pest or weed control at 125 g/ha [5]	pest or weed control at 500 g/ha [5]	pest or weed control at 125 g/ha (Kochia (Kochia scoparia) [6])	pest or weed control at 500 g/ha (Kochia (Kochia scoparia) [6])	pest or weed control at 125 g/ha [7]	pest or weed control at 125 g/ha [8]	pest or weed control at 125 g/ha [9]	Corn plant response rating (crop injury, 0 = no effect, 100 = complete kill) at 125 g/ha (corn (Zea mays))	pest or weed control at 125 g/ha [10]	pest or weed control at 125 g/ha [11]	pest or weed control at 125 g/ha [12]	pest or weed control at 125 g/ha [13]	also measured
CCc1cc(CC)cc([C@H]2CN(C)C(=O)[C@@H]2C(=O)Nc2ccccc2C(F)(F)F)c1 [Compound 737]	0%	0%	90%	90%	70%	80%	40%	70%	0%	0%	40%	50%	30%	30%	0%	40%	70%	40%	50%	20%	pest or weed control at 125 g/ha (Kochia (Kochia scoparia) [14]): 0%; plant injury at 125 g/ha [15]: 40%
O=C1NC[C@H](c2cnc(C(F)(F)F)nc2)[C@H]1C(=O)Nc1ccccc1F [Compound 741]	0%	0%	0%	0%	0%	0%	0%	0%	0%	40%	0%	30%	0%	0%	0%	0%	0%	0%	0%	0%	pest or weed control at 125 g/ha (Kochia (Kochia scoparia) [14]): 0%; plant injury at 125 g/ha [15]: 0%
O=C1NC[C@H](c2ccc(C(F)(F)F)cc2)[C@H]1C(=O)Nc1ccccc1C1CC1 [Compound 746]	0%	0%	80%	90%	0%	0%	0%	40%	0%	20%	0%	60%	50%	20%	0%	0%	50%	20%	0%	0%	pest or weed control at 125 g/ha (Kochia (Kochia scoparia) [14]): 0%; plant injury at 125 g/ha [15]: 0%
